Experimental data: ChEMBL document CHEMBL1201862, “PubChem BioAssay data set” (2004)
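96-well plates; 48 h exposure; 5 concentrations. Endpoints by linear interpolation between flanking doses. Not reached: highest tested concentration assigned. GI50: concentration for 50% inhibition of growth.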 Calls of active or inactive are those of the source. Rule as the data show it: active = GI50 up to about 1.1 µM and inactive = higher.

Assays:
Experiment in all cases: NCI tumour cell line growth inhibition, 48 h
[1] = tested on: RXF 393
[2] = tested on: UACC-257
[3] = tested on: OVCAR-3
[4] = tested on: SK-OV-3
[5] = tested on: HCT-15
[6] = tested on: A498
[7] = tested on: DMS-114
[8] = tested on: COLO 205
[9] = tested on: ACHN
[10] = tested on: OVCAR-4
[11] = tested on: HOP-62
[12] = tested on: M14
[13] = tested on: OVCAR-5
[14] = tested on: SNB-78
[15] = tested on: Malme-3M
[16] = tested on: RPMI-8226
[17] = tested on: NCI-H23
[18] = tested on: U-251
[19] = tested on: 786-0
[20] = tested on: SNB-19
[21] = tested on: NCI-H226
[22] = tested on: HOP-18
[23] = tested on: HCC 2998
[24] = tested on: XF498
[25] = tested on: OVCAR-8
[26] = tested on: SK-MEL-5
[27] = tested on: NCI-H460
[28] = tested on: IGROV-1
[29] = tested on: SF-268
[30] = tested on: SK-MEL-28
[31] = tested on: UO-31
[32] = tested on: HOP-92
[33] = tested on: CCRF-CEM
[34] = tested on: CAKI-1
[35] = tested on: KM-20L2
[36] = tested on: DLD-1
[37] = tested on: SN12C
[38] = tested on: M19-MEL
[39] = tested on: K562
[40] = tested on: UACC-62
[41] = tested on: EKVX
[42] = tested on: SW-620
[43] = tested on: A549
[44] = tested on: SF-539
[45] = tested on: LXFL 529
[46] = tested on: MOLT-4
[47] = tested on: HT-29
[48] = tested on: TK-10
[49] = tested on: SF-295
[50] = tested on: NCI-H522
[51] = tested on: LOX IMVI
[52] = tested on: SNB-75
[53] = tested on: KM12
[54] = tested on: HCT-116
[55] = tested on: HL-60
[56] = tested on: SK-MEL-2
[57] = tested on: DMS-273

## CC1(C)COC(C23C4C5C2C2C3C4C52I)=N1 (stereo unspecified)
[1]
  GI50: > 100 µM (inactive)
[2]
  GI50: > 100 µM (inactive)
[3]
  GI50: > 100 µM (inactive)
[4]
  GI50: > 100 µM (inactive)
[5]
  GI50: > 100 µM
[6]
  GI50: > 100 µM (inactive)
[7]
  GI50: > 100 µM (inactive)
[8]
  GI50: > 100 µM (inactive)
[9]
  GI50: > 100 µM (inactive)
[10]
  GI50: > 100 µM (inactive)
[11]
  GI50: > 100 µM (inactive)
[12]
  GI50: > 100 µM (inactive)
[13]
  GI50: > 100 µM (inactive)
[14]
  GI50: > 100 µM (inactive)
[15]
  GI50: > 100 µM (inactive)
[16]
  GI50: > 100 µM (inactive)
[17]
  GI50: > 100 µM (inactive)
[18]
  GI50: > 100 µM (inactive)
[19]
  GI50: > 100 µM (inactive)
[20]
  GI50: > 100 µM (inactive)
[21]
  GI50: > 100 µM (inactive)
[22]
  GI50: > 100 µM (inactive)
[23]
  GI50: > 100 µM (inactive)
[24]
  GI50: > 100 µM (inactive)
[25]
  GI50: > 100 µM (inactive)
[26]
  GI50: > 100 µM (inactive)
[27]
  GI50: > 100 µM (inactive)
[28]
  GI50: > 100 µM (inactive)
[29]
  GI50: > 100 µM (inactive)
[30]
  GI50: > 100 µM (inactive)
[31]
  GI50: > 100 µM (inactive)
[32]
  GI50: > 100 µM (inactive)
[33]
  GI50: > 100 µM (inactive)
[34]
  GI50: 50.4 µM (inactive)
[35]
  GI50: > 100 µM (inactive)
[36]
  GI50: > 100 µM (inactive)
[37]
  GI50: > 100 µM (inactive)
[38]
  GI50: > 100 µM (inactive)
[39]
  GI50: > 100 µM (inactive)
[40]
  GI50: > 100 µM (inactive)
[41]
  GI50: > 100 µM (inactive)
[42]
  GI50: > 100 µM (inactive)
[43]
  GI50: > 100 µM (inactive)
[44]
  GI50: > 100 µM (inactive)
[45]
  GI50: > 100 µM (inactive)
[46]
  GI50: > 100 µM (inactive)
[47]
  GI50: > 100 µM (inactive)
[48]
  GI50: > 100 µM (inactive)
[49]
  GI50: > 100 µM (inactive)

## N#CC(C(=O)/C(=N/NC(=O)c1ccccc1O)C(C#N)c1ccc(Cl)cc1)c1ccc(Cl)cc1 (stereo unspecified)
[1]
  GI50: 4.05 µM (inactive)
[2]
  GI50: 14.6 µM (inactive)
[3]
  GI50: 20 µM (inactive)
[4]
  GI50: 30.8 µM (inactive)
[5]
  GI50: 15.3 µM
[50]
  GI50: > 10 µM (inactive)
[6]
  GI50: 11.9 µM (inactive)
[7]
  GI50: 23.8 µM (inactive)
[8]
  GI50: 29.9 µM (inactive)
[9]
  GI50: 16 µM (inactive)
[10]
  GI50: 18.1 µM (inactive)
[11]
  GI50: 20.7 µM (inactive)
[12]
  GI50: 19.2 µM (inactive)
[13]
  GI50: 20 µM (inactive)
[14]
  GI50: 19.5 µM (inactive)
[51]
  GI50: 14.3 µM (inactive)
[15]
  GI50: 12.4 µM (inactive)
[52]
  GI50: 3.56 µM (inactive)
[16]
  GI50: 15.8 µM (inactive)
[17]
  GI50: 11.5 µM (inactive)
[18]
  GI50: 10.6 µM (inactive)
[19]
  GI50: 15.9 µM (inactive)
[20]
  GI50: 15 µM (inactive)
[21]
  GI50: 16.9 µM (inactive)
[22]
  GI50: 11.5 µM (inactive)
[24]
  GI50: 13.5 µM (inactive)
[25]
  GI50: 13.4 µM (inactive)
[53]
  GI50: 15.8 µM (inactive)
[27]
  GI50: 15.7 µM (inactive)
[29]
  GI50: 16.6 µM (inactive)
[30]
  GI50: 14.4 µM (inactive)
[31]
  GI50: 17.1 µM (inactive)
[33]
  GI50: 4.26 µM (inactive)
[54]
  GI50: 17.4 µM (inactive)
[35]
  GI50: 13.7 µM (inactive)
[36]
  GI50: 11.9 µM (inactive)
[55]
  GI50: 15.5 µM (inactive)
[37]
  GI50: 13.2 µM (inactive)
[38]
  GI50: 14.1 µM (inactive)
[39]
  GI50: 19.2 µM (inactive)
[41]
  GI50: 22.4 µM (inactive)
[56]
  GI50: 16.5 µM (inactive)
[42]
  GI50: 15.2 µM (inactive)
[43]
  GI50: 24.6 µM (inactive)
[44]
  GI50: 17.3 µM (inactive)
[45]
  GI50: 12.6 µM (inactive)
[46]
  GI50: > 10 µM (inactive)
[47]
  GI50: 12.1 µM (inactive)
[48]
  GI50: 17.5 µM (inactive)
[49]
  GI50: 16.4 µM (inactive)

## O=c1c2cc(O)ccc2n2nnc3ccc(NCCNCCO)c1c32
[4]
  GI50: 5.08 µM (inactive)
[5]
  GI50: 77.8 µM
[7]
  GI50: 2.28 µM (inactive)
[8]
  GI50: 5.33 µM (inactive)
[10]
  GI50: 5.09 µM (inactive)
[57]
  GI50: 9.18 µM (inactive)
[51]
  GI50: 3.23 µM (inactive)
[16]
  GI50: 17.1 µM (inactive)
[17]
  GI50: 11.7 µM (inactive)
[18]
  GI50: 1.27 µM (inactive)
[19]
  GI50: 4.86 µM (inactive)
[20]
  GI50: 4.09 µM (inactive)
[21]
  GI50: 2.6 µM (inactive)
[22]
  GI50: 26.9 µM (inactive)
[24]
  GI50: 1.71 µM (inactive)
[25]
  GI50: 3.53 µM (inactive)
[53]
  GI50: 20.2 µM (inactive)
[29]
  GI50: 1.39 µM (inactive)
[31]
  GI50: 26.9 µM (inactive)
[32]
  GI50: 3.49 µM (inactive)
[54]
  GI50: 4.62 µM (inactive)
[34]
  GI50: 5.68 µM (inactive)
[41]
  GI50: 26.2 µM (inactive)
[44]
  GI50: 4.56 µM (inactive)
[45]
  GI50: 3.2 µM (inactive)
[47]
  GI50: 8.77 µM (inactive)
[49]
  GI50: 15.2 µM (inactive)
